Active and inactive are the calls of the source.
What was measured:
ACHN = assay: Cytotoxicity against human ACHN cells after 48 hrs by trypan blue dye exclusion assay; assay type: functional
MOLT-4 = assay: Cytotoxicity against human MOLT4 cells after 48 hrs by trypan blue dye exclusion assay; assay type: functional; settings: MOLT-4, 48 h
LOX IMVI = assay: Cytotoxicity against human LOXIMVI cells after 48 hrs by trypan blue dye exclusion assay; assay type: functional
OVCAR-8 = assay: Cytotoxicity against human OVCAR8 cells after 48 hrs by trypan blue dye exclusion assay; assay type: functional; settings: OVCAR-8, 48 h
CAKI-1 = assay: Cytotoxicity against human CAKI-1 cells after 48 hrs by trypan blue dye exclusion assay; assay type: functional; settings: CAKI-1, 48 h
IGROV-1 = assay: Cytotoxicity against human IGROV1 cells after 48 hrs by trypan blue dye exclusion assay; assay type: functional; settings: IGROV-1, 48 h
Paracentrotus lividus [1] = assay: Antimitotic activity against Paracentrotus lividus embryo assessed as cleavage arrest at 2 fold less effective threshold concentration after 2.5 to 6 hrs; assay type: functional, organism-based
SN12C = assay: Cytotoxicity against human SN12C cells after 48 hrs by trypan blue dye exclusion assay; assay type: functional
NCI-H23 = assay: Cytotoxicity against human NCI-H23 cells after 48 hrs by trypan blue dye exclusion assay; assay type: functional; settings: NCI-H23, 48 h
OVCAR-4 = assay: Cytotoxicity against human OVCAR4 cells after 48 hrs by trypan blue dye exclusion assay; assay type: functional; settings: OVCAR-4, 48 h
SNB-19 = assay: Cytotoxicity against human SNB19 cells after 48 hrs by trypan blue dye exclusion assay; assay type: functional; settings: SNB-19, 48 h
HOP-92 = assay: Cytotoxicity against human HOP92 cells after 48 hrs by trypan blue dye exclusion assay; assay type: functional; settings: HOP-92, 48 h
SW-620 = assay: Cytotoxicity against human SW620 cells after 48 hrs by trypan blue dye exclusion assay; assay type: functional; settings: SW-620, 48 h
HCC 2998 = assay: Cytotoxicity against human HCC2998 cells after 48 hrs by trypan blue dye exclusion assay; assay type: functional; settings: HCC 2998, 48 h
HT-29 = assay: Cytotoxicity against human HT-29 cells after 48 hrs by trypan blue dye exclusion assay; assay type: functional; settings: HT-29, 48 h
Paracentrotus lividus [2] = assay: Antimitotic activity against Paracentrotus lividus embryo assessed as cleavage alteration at 2 fold less effective threshold concentration after 2.5 to 6 hrs; assay type: functional, organism-based
MDA-MB-435 = assay: Cytotoxicity against human MDA-MB-435 cells after 48 hrs by trypan blue dye exclusion assay; assay type: functional; settings: MDA-MB-435, 48 h
CCRF-CEM = assay: Cytotoxicity against human CCRF-CEM cells after 48 hrs by trypan blue dye exclusion assay; assay type: functional
Paracentrotus lividus [3] = assay: Microtubule destabilizing activity in Paracentrotus lividus embryo assessed as embryo spinning at 2 fold less effective threshold concentration after 15 mins to 20 hrs; assay type: functional, organism-based
SK-OV-3 = assay: Cytotoxicity against human SKOV3 cells after 48 hrs by trypan blue dye exclusion assay; assay type: functional; settings: SK-OV-3, 48 h
A549 = assay: Cytotoxicity against human A549 cells after 48 hrs by trypan blue dye exclusion assay; assay type: functional; settings: A549, 48 h
SR = assay: Cytotoxicity against human SR cells after 48 hrs by trypan blue dye exclusion assay; assay type: functional
UACC-257 = assay: Cytotoxicity against human UACC257 cells after 48 hrs by trypan blue dye exclusion assay; assay type: functional; settings: UACC-257, 48 h
RPMI-8226 = assay: Cytotoxicity against human RPMI8226 cells after 48 hrs by trypan blue dye exclusion assay; assay type: functional; settings: RPMI-8226, 48 h
HL-60(TB) = assay: Cytotoxicity against human HL-60(TB) cells after 48 hrs by trypan blue dye exclusion assay; assay type: functional; settings: HL-60, 48 h
SK-MEL-2 = assay: Cytotoxicity against human SK-MEL-2 cells after 48 hrs by trypan blue dye exclusion assay; assay type: functional; settings: SK-MEL-2, 48 h
MCF7 = assay: Cytotoxicity against human MCF7 cells after 48 hrs by trypan blue dye exclusion assay; assay type: functional; settings: MCF7, 48 h
NCI-H522 = assay: Cytotoxicity against human NCI-H522 cells after 48 hrs by trypan blue dye exclusion assay; assay type: functional; settings: NCI-H522, 48 h
TK-10 = assay: Cytotoxicity against human TK10 cells after 48 hrs by trypan blue dye exclusion assay; assay type: functional; settings: TK-10, 48 h
SF-295 = assay: Cytotoxicity against human SF295 cells after 48 hrs by trypan blue dye exclusion assay; assay type: functional; settings: SF-295, 48 h
NCI/ADR-RES = assay: Cytotoxicity against human NCI/ADR-RES cells after 48 hrs by trypan blue dye exclusion assay; assay type: functional
M14 = assay: Cytotoxicity against human M14 cells after 48 hrs by trypan blue dye exclusion assay; assay type: functional; settings: M14, 48 h
UACC-62 = assay: Cytotoxicity against human UACC62 cells after 48 hrs by trypan blue dye exclusion assay; assay type: functional; settings: UACC-62, 48 h
SF-539 = assay: Cytotoxicity against human SF539 cells after 48 hrs by trypan blue dye exclusion assay; assay type: functional; settings: SF-539, 48 h
SF-268 = assay: Cytotoxicity against human SF268 cells after 48 hrs by trypan blue dye exclusion assay; assay type: functional; settings: SF-268, 48 h
MDA-MB-231 = assay: Cytotoxicity against human MDA-MB-231 cells after 48 hrs by trypan blue dye exclusion assay; assay type: functional; settings: MDA-MB-231, 48 h
DU-145 = assay: Cytotoxicity against human DU145 cells after 48 hrs by trypan blue dye exclusion assay; assay type: functional; settings: DU-145, 48 h
SNB-75 = assay: Cytotoxicity against human SNB75 cells after 48 hrs by trypan blue dye exclusion assay; assay type: functional; settings: SNB-75, 48 h
MDA-MB-468 = assay: Cytotoxicity against human MDA-MB-468 cells after 48 hrs by trypan blue dye exclusion assay; assay type: functional; settings: MDA-MB-468, 48 h
SK-MEL-5 = assay: Cytotoxicity against human SK-MEL-5 cells after 48 hrs by trypan blue dye exclusion assay; assay type: functional; settings: SK-MEL-5, 48 h
SK-MEL-28 = assay: Cytotoxicity against human SK-MEL-28 cells after 48 hrs by trypan blue dye exclusion assay; assay type: functional; settings: SK-MEL-28, 48 h
COLO 205 = assay: Cytotoxicity against human COLO205 cells after 48 hrs by trypan blue dye exclusion assay; assay type: functional; settings: COLO 205, 48 h
U-251 = assay: Cytotoxicity against human U251 cells after 48 hrs by trypan blue dye exclusion assay; assay type: functional; settings: U-251, 48 h
A498 = assay: Cytotoxicity against human A498 cells after 48 hrs by trypan blue dye exclusion assay; assay type: functional; settings: A498, 48 h
HCT-116 = assay: Cytotoxicity against human HCT116 cells after 48 hrs by trypan blue dye exclusion assay; assay type: functional; settings: HCT-116, 48 h
BT-549 = assay: Cytotoxicity against human BT549 cells after 48 hrs by trypan blue dye exclusion assay; assay type: functional; settings: BT-549, 48 h
NCI-H322M = assay: Cytotoxicity against human NCI-H322M cells after 48 hrs by trypan blue dye exclusion assay; assay type: functional
PC-3 = assay: Cytotoxicity against human PC3 cells after 48 hrs by trypan blue dye exclusion assay; assay type: functional; settings: PC-3, 48 h
786-0 = assay: Cytotoxicity against human 786-0 cells after 48 hrs by trypan blue dye exclusion assay; assay type: functional; settings: 786-0, 48 h
KM12 = assay: Cytotoxicity against human KM12 cells after 48 hrs by trypan blue dye exclusion assay; assay type: functional; settings: KM12, 48 h
NCI-H226 = assay: Cytotoxicity against human NCI-H226 cells after 48 hrs by trypan blue dye exclusion assay; assay type: functional; settings: NCI-H226, 48 h
OVCAR-3 = assay: Cytotoxicity against human OVCAR3 cells after 48 hrs by trypan blue dye exclusion assay; assay type: functional; settings: OVCAR-3, 48 h
[4] = Cytotoxicity against human Hs 578T cells after 48 hrs by trypan blue dye exclusion assay; assay type: functional
EKVX = assay: Cytotoxicity against human EKVX cells after 48 hrs by trypan blue dye exclusion assay; assay type: functional
OVCAR-5 = assay: Cytotoxicity against human OVCAR5 cells after 48 hrs by trypan blue dye exclusion assay; assay type: functional; settings: OVCAR-5, 48 h
HCT-15 = assay: Cytotoxicity against human HCT15 cells after 48 hrs by trypan blue dye exclusion assay; assay type: functional; settings: HCT-15, 48 h
NCI-H460 = assay: Cytotoxicity against human NCI-H460 cells after 48 hrs by trypan blue dye exclusion assay; assay type: functional; settings: NCI-H460, 48 h
RXF 393 = assay: Cytotoxicity against human RXF393 cells after 48 hrs by trypan blue dye exclusion assay; assay type: functional; settings: RXF 393, 48 h
UO-31 = assay: Cytotoxicity against human UO31 cells after 48 hrs by trypan blue dye exclusion assay; assay type: functional; settings: UO-31, 48 h

## COc1cc(OC)cc(C2C3=C(COC3=O)Nc3cc(OC)ccc32)c1 (centres undefined)
ACHN
  GI50: < 10 nM
MOLT-4
  GI50: < 10 nM
LOX IMVI
  GI50: < 10 nM
OVCAR-8
  GI50: 20.4 nM
CAKI-1
  GI50: < 10 nM
IGROV-1
  GI50: < 10 nM
Paracentrotus lividus [1]
  Activity: inactive
SN12C
  GI50: 16.1 nM
NCI-H23
  GI50: < 10 nM
OVCAR-4
  GI50: < 10 nM
SNB-19
  GI50: 27.8 nM
HOP-92
  GI50: < 10 nM
SW-620
  GI50: < 10 nM
HCC 2998
  GI50: < 10 nM
HT-29
  GI50: < 10 nM
Paracentrotus lividus [2]
  Activity: inactive
MDA-MB-435
  GI50: < 10 nM
CCRF-CEM
  GI50: < 10 nM
Paracentrotus lividus [3]
  Activity: inactive
SK-OV-3
  GI50: < 10 nM
A549
  GI50: < 10 nM
SR
  GI50: < 10 nM
UACC-257
  GI50: > 100000 nM
RPMI-8226
  GI50: < 10 nM
HL-60(TB)
  GI50: < 10 nM
SK-MEL-2
  GI50: 8160 nM
MCF7
  GI50: < 10 nM
NCI-H522
  GI50: < 10 nM
TK-10
  GI50: 39700 nM
SF-295
  GI50: < 10 nM
NCI/ADR-RES
  GI50: < 10 nM
M14
  GI50: < 10 nM
UACC-62
  GI50: < 10 nM
SF-539
  GI50: < 10 nM
SF-268
  GI50: < 10 nM
MDA-MB-231
  GI50: 16.5 nM
DU-145
  GI50: < 10 nM
SNB-75
  GI50: < 10 nM
MDA-MB-468
  GI50: < 10 nM
SK-MEL-5
  GI50: < 10 nM
SK-MEL-28
  GI50: < 10 nM
COLO 205
  GI50: < 10 nM
U-251
  GI50: < 10 nM
A498
  GI50: < 10 nM
HCT-116
  GI50: < 10 nM
BT-549
  GI50: 13.8 nM
NCI-H322M
  GI50: < 10 nM
PC-3
  GI50: < 10 nM
786-0
  GI50: 20.3 nM
KM12
  GI50: < 10 nM
NCI-H226
  GI50: 14400 nM
OVCAR-3
  GI50: < 10 nM
[4]
  GI50: < 10 nM
EKVX
  GI50: < 10 nM
OVCAR-5
  GI50: 40.4 nM
HCT-15
  GI50: < 10 nM
NCI-H460
  GI50: < 10 nM
RXF 393
  GI50: < 10 nM
UO-31
  GI50: 48.8 nM

Source: ChEMBL document CHEMBL2010711, “Synthesis and comparative evaluation of 4-oxa- and 4-aza-podophyllotoxins as antiproliferative microtubule destabilizing agents” (Bioorg Med Chem Lett, 2012)
